Data from paper PMC12888861, “Antibacterial activity of enmetazobactam against Acinetobacter spp.: a molecular dissection of mechanism of action and resistance determinants” (Antimicrobial Agents and Chemotherapy, 2025).
Values after ≈ are worked out from the molar mass of the structure shown.

Legend:
OXA-23 = target: T1, OXA-23 (Acinetobacter baumannii, UniProt Q9L4P2); assay: OXA-23 inhibition assay (nitrocefin hydrolysis IC50); format: biochemical
T1 construct: GST (N); made in house; host or cells: Escherichia coli BL21
T1 sequence (Q9L4P2 18-273): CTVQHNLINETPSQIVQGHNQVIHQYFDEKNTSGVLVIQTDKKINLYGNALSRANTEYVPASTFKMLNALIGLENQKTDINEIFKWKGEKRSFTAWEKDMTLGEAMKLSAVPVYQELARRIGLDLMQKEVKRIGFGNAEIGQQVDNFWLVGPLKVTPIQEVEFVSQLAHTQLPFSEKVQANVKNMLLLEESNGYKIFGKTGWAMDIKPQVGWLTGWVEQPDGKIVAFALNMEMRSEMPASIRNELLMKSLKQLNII
Experimental: The Michaelis-Menten constant (Km) was determined by fitting the data to the Michaelis-Menten equation, following established protocols ([38]). The kcat (hydrolysis rate constant of the β-lactamase) was obtained by linearization of the kinetic data ([39]). To assess the possible inhibitory capacity of enmetazobactam against the CHDLs of A. baumannii, specific OXA-23 inhibition kinetics assays were performed in a Nanoquant Infinite spectrophotometer (Tecan). […] Also, the dissociation constant (koff), which represents the rate at which the enzyme-inhibitor complex dissociates (i.e., the proportion of the enzyme-inhibitor complex that dissociates per unit of time), was determined through a jump-dilution assay that monitored OXA-23 activity recovery as the enzyme-inhibitor complex dissociated. OXA-23 (1 µM) was preincubated for 30 min at 37°C with excess of inhibitors (50× IC₅₀) to ensure full acyl-enzyme complex formation. Subsequently, the mixture was diluted 1:5,000 to allow gradual complex dissociation. […] Enzymatic activity, reflecting the progressive dissociation of the acyl-enzyme complex, was monitored spectrophotometrically at 490 nm for 8 h. The resulting progress curves were fitted using GraphPad Prism (GraphPad Software, MA, USA) to equation 1 to estimate koff, where V0 is the initial, inhibited enzyme velocity; Vs is the steady-state uninhibited enzyme velocity, and t is time.

PBP2 = target: T2, PBP2 (Acinetobacter baumannii, UniProt D0C8Z9); assay: PBP-binding assay, Bocillin FL competition, membrane preparations; conditions: IC50 (binding affinity) PBP2, membrane preparations, A. baumannii ATCC 19606
T2 construct: endogenous in cells; host or cells: A. baumannii ATCC 19606 membrane fraction
T2 sequence (D0C8Z9 whole entry): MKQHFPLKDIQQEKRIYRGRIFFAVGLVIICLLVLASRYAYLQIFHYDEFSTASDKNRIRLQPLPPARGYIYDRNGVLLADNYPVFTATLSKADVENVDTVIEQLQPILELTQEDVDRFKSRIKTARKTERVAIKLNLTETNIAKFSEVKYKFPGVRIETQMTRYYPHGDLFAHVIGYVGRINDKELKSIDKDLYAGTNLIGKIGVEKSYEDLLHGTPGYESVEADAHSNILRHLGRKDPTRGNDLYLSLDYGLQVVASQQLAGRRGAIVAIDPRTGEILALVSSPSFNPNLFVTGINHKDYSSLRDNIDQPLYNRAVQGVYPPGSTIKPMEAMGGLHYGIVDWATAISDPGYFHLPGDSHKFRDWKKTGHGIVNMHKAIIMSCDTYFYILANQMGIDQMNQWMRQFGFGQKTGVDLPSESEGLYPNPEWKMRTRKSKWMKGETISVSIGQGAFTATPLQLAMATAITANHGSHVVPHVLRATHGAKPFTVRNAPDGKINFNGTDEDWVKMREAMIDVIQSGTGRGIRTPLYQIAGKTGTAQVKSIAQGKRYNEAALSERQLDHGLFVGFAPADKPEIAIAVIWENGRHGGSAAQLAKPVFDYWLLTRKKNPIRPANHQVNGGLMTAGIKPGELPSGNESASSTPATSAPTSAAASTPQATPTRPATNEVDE
Experimental: (§1) The possible involvement of A. baumannii PBPs as enmetazobactam targets was evaluated. […] The PBP-binding IC50 was determined in membrane preparations from three independent experiments, following previously described protocols ([13]).
(§2) Briefly, A. baumannii cultures were grown in Mueller-Hinton broth at 37°C with shaking at 180 rpm, and 400 mL were collected in late log phase (OD₆₀₀nm= 1), washed, and resuspended in 20 mM KH₂PO₄ and 140 mM NaCl (pH 7.5). After sonication, bacterial membranes were isolated by ultracentrifugation (150,000 g, 30 min). […] The Bocillin FL signal is inversely proportional to the binding capacity of the compounds tested to PBPs ([35]). The PBPs were separated by SDS-PAGE (Bio-Rad) and visualized with Odyssey M Imager (LI-COR). The IC₅₀ values were calculated using Empiria Studio software (LI-COR). The binding affinity was determined by comparing the change of the fluorescence in the presence or absence of the tested sulfones.

PBP1b = PBP1b (Acinetobacter baumannii, UniProt A0ABX6CHI7); assay: as above; conditions: A. baumannii ATCC 19606, read-out: IC50 (binding affinity) PBP1b (converted)
Experimental: as §1, §2

PBP1a = PBP1a (Acinetobacter baumannii, UniProt A0ABX6CK30); assay: as above; conditions: A. baumannii ATCC 19606, read-out: IC50 (binding affinity) PBP1a
Chain of PBP1a (A0ABX6CK30 entry or part of it): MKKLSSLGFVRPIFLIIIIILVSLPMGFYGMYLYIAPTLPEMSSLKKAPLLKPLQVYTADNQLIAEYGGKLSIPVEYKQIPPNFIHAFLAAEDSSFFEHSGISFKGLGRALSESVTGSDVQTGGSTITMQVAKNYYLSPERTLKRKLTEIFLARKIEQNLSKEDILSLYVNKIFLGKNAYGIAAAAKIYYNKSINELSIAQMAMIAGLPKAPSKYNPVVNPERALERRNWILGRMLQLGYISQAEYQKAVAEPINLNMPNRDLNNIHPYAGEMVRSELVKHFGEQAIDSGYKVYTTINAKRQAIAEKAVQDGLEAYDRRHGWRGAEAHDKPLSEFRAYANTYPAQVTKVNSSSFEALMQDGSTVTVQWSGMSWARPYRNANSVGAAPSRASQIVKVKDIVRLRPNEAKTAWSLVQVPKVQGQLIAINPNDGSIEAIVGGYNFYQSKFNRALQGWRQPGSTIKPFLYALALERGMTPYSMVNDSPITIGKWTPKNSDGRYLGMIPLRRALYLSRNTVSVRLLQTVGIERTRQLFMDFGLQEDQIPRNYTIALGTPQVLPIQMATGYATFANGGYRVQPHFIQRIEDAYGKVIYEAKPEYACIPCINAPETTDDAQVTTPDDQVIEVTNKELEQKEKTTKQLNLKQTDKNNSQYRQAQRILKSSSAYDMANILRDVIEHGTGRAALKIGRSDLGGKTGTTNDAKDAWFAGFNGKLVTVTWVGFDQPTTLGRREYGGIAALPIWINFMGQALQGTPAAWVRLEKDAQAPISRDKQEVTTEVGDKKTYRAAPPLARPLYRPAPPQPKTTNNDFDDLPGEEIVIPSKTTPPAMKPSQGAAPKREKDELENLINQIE
Experimental: as §1, §2

PBP3 = PBP3 (Acinetobacter baumannii, UniProt A0ABX6CK25); assay: as above; conditions: A. baumannii ATCC 19606, read-out: IC50 (binding affinity) PBP3 (converted)
Chain of PBP3 (A0ABX6CK25 entry or part of it): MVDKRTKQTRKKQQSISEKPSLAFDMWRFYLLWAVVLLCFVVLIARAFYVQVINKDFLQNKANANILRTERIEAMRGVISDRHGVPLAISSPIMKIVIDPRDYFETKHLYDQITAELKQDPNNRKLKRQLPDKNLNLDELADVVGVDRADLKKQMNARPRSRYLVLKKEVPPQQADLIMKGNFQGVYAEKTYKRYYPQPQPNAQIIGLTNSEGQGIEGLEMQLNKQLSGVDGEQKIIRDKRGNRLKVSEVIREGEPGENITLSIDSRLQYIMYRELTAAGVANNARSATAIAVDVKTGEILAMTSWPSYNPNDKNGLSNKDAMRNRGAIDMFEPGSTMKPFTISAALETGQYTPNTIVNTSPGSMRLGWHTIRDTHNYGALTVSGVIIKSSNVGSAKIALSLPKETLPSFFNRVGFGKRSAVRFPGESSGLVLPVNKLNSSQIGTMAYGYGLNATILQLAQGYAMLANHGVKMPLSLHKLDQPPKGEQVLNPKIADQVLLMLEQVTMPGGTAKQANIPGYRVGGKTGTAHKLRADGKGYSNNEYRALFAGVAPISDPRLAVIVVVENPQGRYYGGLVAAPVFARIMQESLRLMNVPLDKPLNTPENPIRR
Experimental: as §1, §2

[1] = test system: carbapenem-resistant A. baumannii (CRAB) isolates (n = 67); assay: MIC, broth microdilution (EUCAST), carbapenem-resistant A. baumannii isolates; format: cell-based, Acinetobacter baumannii; conditions: for MIC: Acinetobacter baumannii
From the text: The bacterial strains used in this study comprised 208 clinical isolates from the Spanish National Acinetobacter spp. 2020 Multicenter Collection, which was previously characterized in detail by our research group, including whole-genome sequencing, phylogenetics studies, clonal dynamics, and resistance mechanisms ([2], [29]). Additionally, a collection of A. baumannii ATCC 17978 transformants coding the blaOXA-23, blaOXA-24/40, blaOXA-51, blaOXA-58, blaOXA-143, and blaOXA-201 genes, previously constructed and described by our group ([30]), was used to determine the activity of enmetazobactam against strains carrying the main CHDLs of A. baumannii.
The antimicrobial susceptibility of the 208 Acinetobacter spp. isolates was assessed using the broth microdilution method, as described in the European Committee on Antimicrobial Susceptibility Testing (EUCAST) v.15 guidelines (http://www.eucast.org/clinical_breakpoints). […] MICs for enmetazobactam alone were assessed as well. […] Subsequently, MIC testing was also conducted with a collection of A. baumannii ATCC 17978 transformants expressing clinically relevant OXA-like carbapenemase genes.
The A. baumannii ATCC 19606 strain was used as the reference strain in all susceptibility experiments, in duplicate assays. Antibiotics were purchased from Sigma-Aldrich, except enmetazobactam and durlobactam, which were obtained from Advanz Pharma and MedChemExpress, respectively.

CC1(C)[C@H](C(=O)O)N2C(=O)C[C@H]2S1(=O)=O [sulbactam]
IC50 (OXA-23): 29.2 µM | IC50 (PBP2): > 274 µM | IC50 (PBP1b): 9.6 µM | IC50 (PBP1a): > 274 µM | IC50 (PBP3): 9.73 µM | MIC distribution ≥64 [1]: 100% | MIC ([1]; MBC set, isolate Ab4, A. baumannii ST 2, ADC-30, OXA-66, ISAba1-OXA-23): 16 µg/mL (≈ 68.6 µM) | MIC ([1]; MBC set, isolate Ab6, A. baumannii ST 2, ADC-30, OXA-66, ISAba1-OXA-23, TEM-12): 16 µg/mL (≈ 68.6 µM) | MIC ([1]; MBC set, isolate Ab9, A. baumannii ST 2, ADC-30, OXA-66, OXA-23, TEM-12): 4 µg/mL (≈ 17.1 µM) | MIC ([1]; isolate Ab56, ST 1, ADC-75, OXA-69, OXA-23, ETZ fixed 8 mg/L in combinations): 8 µg/mL | MIC ([1]; isolate Ab83, ST 25, ADC-5, OXA-64, OXA-23, DUR fixed at 4 mg/L in combinations): 32 µg/mL | MIC ([1]; isolate Ab83, ST 25, ADC-5, OXA-64, OXA-23, ETZ fixed 8 mg/L in combinations): 32 µg/mL | MIC ([1]; isolate Ab109, ST 1, ADC-75, OXA-69, OXA-23, DUR fixed at 4 mg/L in combinations): 16 µg/mL | MIC ([1]; isolate Ab109, ST 1, ADC-75, OXA-69, OXA-23, ETZ fixed 8 mg/L in combinations): 16 µg/mL | MIC ([1]; isolate Ab133, ST 2, ADC-30, OXA-66, OXA-58, TEM-12, DUR fixed at 4 mg/L in combinations): 32 µg/mL | MIC ([1]; isolate Ab133, ST 2, ADC-30, OXA-66, OXA-58, TEM-12, ETZ fixed 8 mg/L in combinations): 32 µg/mL | MIC ([1]; isolate Ab134, ST 2, ADC-30, OXA-66, OXA-58, TEM-12, DUR fixed at 4 mg/L in combinations): 32 µg/mL | MIC ([1]; isolate Ab134, ST 2, ADC-30, OXA-66, OXA-58, TEM-12, ETZ fixed 8 mg/L in combinations): 32 µg/mL | MIC ([1]; isolate Ab137, ST 85, ADC-2, OXA-94, OXA-23, DUR fixed at 4 mg/L in combinations): 16 µg/mL | MIC ([1]; isolate Ab137, ST 85, ADC-2, OXA-94, OXA-23, ETZ fixed 8 mg/L in combinations): 16 µg/mL | MIC ([1]; isolate Ab138, ST 745, ADC-30, OXA-66, OXA-58, DUR fixed at 4 mg/L in combinations): 4 µg/mL | MIC ([1]; isolate Ab138, ST 745, ADC-30, OXA-66, OXA-58, ETZ fixed 8 mg/L in combinations): 8 µg/mL | MIC ([1]; isolate Ab140, ST 85, ADC-2, OXA-94, OXA-23, DUR fixed at 4 mg/L in combinations): 16 µg/mL | MIC ([1]; isolate Ab140, ST 85, ADC-2, OXA-94, OXA-23, ETZ fixed 8 mg/L in combinations): 16 µg/mL | MIC ([1]; isolate Ab141, ST 745, ADC-30, OXA-66, OXA-58, DUR fixed at 4 mg/L in combinations): 8 µg/mL | MIC ([1]; isolate Ab141, ST 745, ADC-30, OXA-66, OXA-58, ETZ fixed 8 mg/L in combinations): 8 µg/mL | MIC ([1]; isolate Ab144, ST 745, ADC-30, OXA-66, OXA-58, DUR fixed at 4 mg/L in combinations): 8 µg/mL | MIC ([1]; isolate Ab144, ST 745, ADC-30, OXA-66, OXA-58, ETZ fixed 8 mg/L in combinations): 8 µg/mL | MIC ([1]; isolate Ab169, ST 2, ADC-30, OXA-66, OXA-23, DUR fixed at 4 mg/L in combinations): 16 µg/mL | MIC ([1]; isolate Ab169, ST 2, ADC-30, OXA-66, OXA-23, ETZ fixed 8 mg/L in combinations): 16 µg/mL | MIC ([1]; isolate Ab171, ST 2, ADC-30, OXA-66, OXA-23, DUR fixed at 4 mg/L in combinations): 16 µg/mL | MIC ([1]; isolate Ab171, ST 2, ADC-30, OXA-66, OXA-23, ETZ fixed 8 mg/L in combinations): 16 µg/mL | MIC ([1]; isolate Ab173, ST 2, ISAba1-ADC-30, OXA-66, OXA-23, DUR fixed at 4 mg/L in combinations): 32 µg/mL | MIC ([1]; isolate Ab173, ST 2, ISAba1-ADC-30, OXA-66, OXA-23, ETZ fixed 8 mg/L in combinations): 32 µg/mL | MIC ([1]; isolate Ab174, ST 2, ADC-30, OXA-66, OXA-23, DUR fixed at 4 mg/L in combinations): 16 µg/mL | MIC ([1]; isolate Ab174, ST 2, ADC-30, OXA-66, OXA-23, ETZ fixed 8 mg/L in combinations): 16 µg/mL | MIC ([1]; isolate Ab179, ST 2, ADC-30, OXA-66, OXA-23, DUR fixed at 4 mg/L in combinations): 16 µg/mL | MIC ([1]; isolate Ab179, ST 2, ADC-30, OXA-66, OXA-23, ETZ fixed 8 mg/L in combinations): 16 µg/mL | MIC ([1]; isolate Ab180, ST 2, ADC-30, OXA-66, OXA-24/40, DUR fixed at 4 mg/L in combinations): 4 µg/mL | MIC ([1]; isolate Ab180, ST 2, ADC-30, OXA-66, OXA-24/40, ETZ fixed 8 mg/L in combinations): 4 µg/mL | MIC ([1]; isolate Ab181, ST 2, ADC-30, OXA-66, OXA-23, DUR fixed at 4 mg/L in combinations): 16 µg/mL
